Reference: PubChem BioAssay (NCI)
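48-hour exposure; five concentrations; linearly interpolated endpoints. Abbreviation: GI50, concentration required for 50% inhibition of growth. TGI marks complete inhibition of growth.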

Experiments:
Assay in all cases: NCI anticancer screen, dose series, 48 h
[1] = system: ACHN renal
[2] = system: HCT-116 colon
[3] = system: LOX IMVI melanoma
[4] = system: K-562 leukemia
[5] = system: MOLT-4 leukemia
[6] = system: NCI/ADR-RES ovarian
[7] = system: SK-MEL-5 melanoma
[8] = system: CAKI-1 renal
[9] = system: MCF7 breast
[10] = system: MDA-MB-231 breast

Row | Compound | TGI [1] [µM] | TGI [2] [µM] | TGI [3] [µM] | TGI [4] [µM] | TGI [5] [µM] | TGI [6] [µM] | TGI [7] [µM] | TGI [8] [µM] | TGI [9] [µM] | GI50 [6] [µM] | GI50 [7] [µM] | GI50 [1] [µM] | GI50 [8] [µM] | GI50 [3] [µM] | GI50 [9] [µM] | GI50 [4] [µM] | GI50 [10] [µM] | TGI [10] [µM] | GI50 [5] [µM]
1 | Brc1ccc(C[N+]23CN4CN(CN(C4)C2)C3)cc1 | > 100 | 79.8 | 48 | > 100 | 69 | – | – | – | – | – | – | – | – | – | – | – | – | – | –
2 | CCOC(=O)CCC(C(=O)OCC)n1nnc2ccc(Nc3c(C)[n+]([O-])c4cc(F)c(OCC)cc4[n+]3[O-])cc21 (stereo not drawn) | > 100 | > 100 | > 100 | > 100 | > 100 | > 100 | > 100 | > 100 | 68.6 | – | – | – | – | – | – | – | – | – | –
3 | CN1CCN(Cn2nc(-c3cc(F)c(Cl)cc3Cl)oc2=S)CC1 | > 100 | – | 45.6 | > 100 | 70.9 | > 100 | 33.7 | > 100 | > 100 | 83.6 | 17.4 | 34.6 | 34.2 | 20.3 | 30.2 | 41.4 | 17.8 | 62.5 | 30.5
4 | CC1(C)OC2[C@@H](CO[C@@]3([C@H]4OC(C)(C)O[C@@H]4CO)OC(C)(C)O[C@@H]23)O1 (stereo partly drawn) | > 100 | > 100 | > 100 | > 100 | > 100 | > 100 | > 100 | – | > 100 | – | – | – | – | – | – | – | – | > 100 | –
5 | CCOC(=O)[C@@]12NN=N[C@@H]1[C@H]1CO[C@H](c3ccccc3)N1C2=O | 28.2 | 32.5 | 4.92 | – | > 100 | 75.9 | 24.5 | 24.8 | 25.3 | – | – | – | – | – | – | – | – | 30.6 | –
6 | COC(=O)C1=C(C)NC2=C(C(=O)c3ccccc32)C1c1cn[nH]c1-c1ccccc1 (stereo not drawn) | > 100 | > 100 | – | > 100 | > 100 | > 100 | > 100 | > 100 | > 100 | – | – | – | – | – | – | – | – | > 100 | –
7 | Cc1ccc(S(=O)(=O)NCCCSCCO)cc1 | > 100 | > 100 | > 100 | > 100 | > 100 | > 100 | > 100 | – | > 100 | – | – | – | – | – | – | – | – | > 100 | –
8 | O=P(Nc1cccc(Cl)c1)(Oc1ccccc1)N(CCCl)CCCl (stereo not drawn) | 47.3 | 25.8 | – | > 100 | > 100 | – | 25.3 | 31.5 | – | – | – | – | – | – | – | – | – | – | –
9 | O=C1C(=O)N(C23CC4CC(CC(C4)C2)C3)C(=S)N1c1ccccc1 | > 100 | > 100 | > 100 | > 100 | > 100 | > 100 | > 100 | > 100 | – | – | – | – | – | – | – | – | – | > 100 | –
10 | CCSc1[nH]c(NC(=NC(C)C)NC(=O)c2ccccc2)c(C(N)=O)c1C(N)=O | – | – | > 10 | > 10 | > 10 | – | > 10 | > 10 | > 10 | – | – | – | – | – | – | – | – | > 10 | –
11 | C=CC(=C)CCC(Br)C(C)(C)Cl (stereo not drawn) | > 100 | > 100 | – | > 100 | > 100 | > 100 | > 100 | – | > 100 | – | – | – | – | – | – | – | – | > 100 | –
